In patent US9156796B2, “Benzoimidazole-carboxylic acid amide derivatives as APJ receptor modulators” (SANOFI, priority 2013, dated 2015):

target: T1, human apelin receptor (Homo sapiens, UniProt P35414); experiment: Determination of agonism on the human apelin receptor by a calcium fluorescence assay (FLIPR); assay type: cell-based; conditions: HEK293 cells stably transfected with human apelin receptor and Giaq protein, Fluo-4 calcium fluorescence, read-out: EC50 (APJ agonism)
T1 construct: expressed in transfected cells
T1 sequence (P35414 1-380): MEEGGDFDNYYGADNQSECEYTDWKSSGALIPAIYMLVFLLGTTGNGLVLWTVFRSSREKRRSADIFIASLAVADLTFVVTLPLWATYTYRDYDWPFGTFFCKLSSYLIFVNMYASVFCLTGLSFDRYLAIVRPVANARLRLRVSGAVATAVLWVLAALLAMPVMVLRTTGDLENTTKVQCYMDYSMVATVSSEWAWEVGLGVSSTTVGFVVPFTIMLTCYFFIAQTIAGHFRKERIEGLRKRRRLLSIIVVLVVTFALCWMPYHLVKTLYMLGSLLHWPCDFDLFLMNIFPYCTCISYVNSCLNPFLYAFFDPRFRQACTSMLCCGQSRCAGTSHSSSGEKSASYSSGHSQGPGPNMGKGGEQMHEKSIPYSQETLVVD
Procedure, shortened: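 Agonist EC50s come from peak intracellular calcium transients recorded by FLIPR Tetra, scaled to the 1 μM apelin-13 maximum per plate. Test system: HEK293 stably transfected with human apelin receptor plus Giaq, Fluo-4-loaded (4 μM, 1 h, 37 °C, pH 7.4 buffer with probenecid); ≥7 concentrations, triplicates.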

SMILES | EC50
CCC(CC)n1c(Cc2cccs2)nc2cc(C(=O)N[C@@H](CC(C)C)C(=O)NCC(C)(C)OC)ccc21 [Example 394, 1-(1-Ethyl-propyl)-2-thiophen-2-ylmethyl-1H-benzoimidazole-5-carboxylic acid [(S)-1-(2-methoxy-2-methyl-propylcarbamoyl)-3-methyl-butyl]-amide] | 2330 nM
CCC(CC)n1c(Cc2cccs2)nc2cc(C(=O)N[C@@H](CC(C)C)C(=O)N(C)CC3CCCCO3)ccc21 (stereo partly drawn) [Example 395, 1-(1-Ethyl-propyl)-2-thiophen-2-ylmethyl-1H-benzoimidazole-5-carboxylic acid {(S)-3-methyl-1-[methyl-(tetrahydro-pyran-2-ylmethyl)-carbamoyl]-butyl}-amide] | 1760 nM
CCC(CC)n1c(Cc2cccs2)nc2cc(C(=O)N[C@@H](CC(C)C)C(=O)NCCS(N)(=O)=O)ccc21 [Example 401, 1-(1-Ethyl-propyl)-2-thiophen-2-ylmethyl-1H-benzoimidazole-5-carboxylic acid [(S)-3-methyl-1-(2-sulfamoyl-ethylcarbamoyl)-butyl]-amide] | 600 nM
CCC(CC)n1c(Cc2cccs2)nc2cc(C(=O)N[C@@H](CC(C)C)C(=O)NCCNS(C)(=O)=O)ccc21 [Example 402, 1-(1-Ethyl-propyl)-2-thiophen-2-ylmethyl-1H-benzoimidazole-5-carboxylic acid [(S)-1-(2-methanesulfonylamino-ethylcarbamoyl)-3-methyl-butyl]-amide] | 777 nM
CCC(CC)n1c(Cc2cccs2)nc2cc(C(=O)N[C@@H](CC(C)C)C(=O)NCC#N)ccc21 [Example 403, 1-(1-Ethyl-propyl)-2-thiophen-2-ylmethyl-1H-benzoimidazole-5-carboxylic acid [(S)-1-(cyanomethyl-carbamoyl)-3-methyl-butyl]-amide] | 1610 nM
CCC(CC)n1c(Cc2cccs2)nc2cc(C(=O)N[C@@H](CC(C)C)C(=O)NCCC#N)ccc21 [Example 404, 1-(1-Ethyl-propyl)-2-thiophen-2-ylmethyl-1H-benzoimidazole-5-carboxylic acid [(S)-1-(2-cyano-ethylcarbamoyl)-3-methyl-butyl]-amide] | 788 nM
CCC(CC)n1c(Cc2cccs2)nc2cc(C(=O)N[C@@H](CC(C)C)C(=O)N3CCC(O)C3)ccc21 (stereo partly drawn) [Example 407, 1-(1-Ethyl-propyl)-2-thiophen-2-ylmethyl-1H-benzoimidazole-5-carboxylic acid [(S)-1-(3-hydroxy-pyrrolidine-1-carbonyl)-3-methyl-butyl]-amide] | 708 nM
CCC(CC)n1c(Cc2cccs2)nc2cc(C(=O)N[C@@H](CC(C)C)C(=O)NCC(=O)O)ccc21 [Example 408, ((S)-2-{[1-(1-Ethyl-propyl)-2-thiophen-2-ylmethyl-1H-benzoimidazole-5-carbonyl]-amino}-4-methyl-pentanoylamino)-acetic acid] | 447 nM
CCC(CC)n1c(Cc2cccs2)nc2cc(C(=O)N[C@@H](CC(C)C)C(=O)N3CCC[C@H]3C(=O)O)ccc21 [Example 409, (S)-1-((S)-2-{[1-(1-Ethyl-propyl)-2-thiophen-2-ylmethyl-1H-benzoimidazole-5-carbonyl]-amino}-4-methyl-pentanoyl)-pyrrolidine-2-carboxylic acid] | 491 nM
CCC(CC)n1c(Cc2cccs2)nc2cc(C(=O)N[C@@H](CC(C)C)C(=O)N3CCC[C@@H]3C(=O)O)ccc21 [Example 410, (R)-1-((S)-2-{[1-(1-Ethyl-propyl)-2-thiophen-2-ylmethyl-1H-benzoimidazole-5-carbonyl]-amino}-4-methyl-pentanoyl)-pyrrolidine-2-carboxylic acid] | 578 nM
CCC(CC)n1c(Cc2cccs2)nc2cc(C(=O)N[C@@H](CC(C)C)C(=O)N3CC(C(=O)O)C3)ccc21 [Example 411, 1-((S)-2-{[1-(1-Ethyl-propyl)-2-thiophen-2-ylmethyl-1H-benzoimidazole-5-carbonyl]-amino}-4-methyl-pentanoyl)-azetidine-3-carboxylic acid] | 822 nM
CCC(CC)n1c(Cc2cccs2)nc2cc(C(=O)N[C@H](Cc3nnn[nH]3)CC(C)C)ccc21 [Example 472, 1-(1-Ethyl-propyl)-2-thiophen-2-ylmethyl-1H-benzoimidazole-5-carboxylic acid [(S)-3-methyl-1-(1H-tetrazol-5-ylmethyl)-butyl]-amide] | 38 nM

Continued by falling EC50, values first:

EC50 | SMILES
34500 nM | CCC(CC)n1c(Cc2cccs2)nc2cc(C(=O)N[C@H](Cc3noc(-c4ccccc4)n3)CC(C)C)ccc21 [Example 474, 1-(1-Ethyl-propyl)-2-thiophen-2-ylmethyl-1H-benzoimidazole-5-carboxylic acid [(S)-3-methyl-1-(5-phenyl-[1,2,4]oxadiazol-3-ylmethyl)-butyl]-amide]
8740 nM | CCC(CC)n1c(Cc2cccs2)nc2cc(C(=O)N[C@@H](CC(C)C)C(=O)NC3COC4(CCCCC4)C3)ccc21 (stereo partly drawn) [Example 397, 1-(1-Ethyl-propyl)-2-thiophen-2-ylmethyl-1H-benzoimidazole-5-carboxylic acid [(S)-3-methyl-1-(1-oxa-spiro[4.5]dec-3-ylcarbamoyl)-butyl]-amide]
5460 nM | CCC(CC)n1c(Cc2cccs2)nc2cc(C(=O)N[C@@H](CC(C)C)C(=O)NC3COC4(CCCC4)C3)ccc21 (stereo partly drawn) [Example 398, 1-(1-Ethyl-propyl)-2-thiophen-2-ylmethyl-1H-benzoimidazole-5-carboxylic acid [(S)-3-methyl-1-(1-oxa-spiro[4.4]non-3-ylcarbamoyl)-butyl]-amide]
4040 nM | CCC(CC)n1c(Cc2cccs2)nc2cc(C(=O)N[C@@H](CC(C)C)C(=O)N(CC)CC3CCCCO3)ccc21 (stereo partly drawn) [Example 396, 1-(1-Ethyl-propyl)-2-thiophen-2-ylmethyl-1H-benzoimidazole-5-carboxylic acid {(S)-1-[ethyl-(tetrahydro-pyran-2-ylmethyl)-carbamoyl]-3-methyl-butyl}-amide]
3950 nM | CCC(CC)n1c(Cc2cccs2)nc2cc(C(=O)N[C@H](Cc3n[nH]c(C(F)(F)F)n3)CC(C)C)ccc21 [Example 476, 1-(1-Ethyl-propyl)-2-thiophen-2-ylmethyl-1H-benzoimidazole-5-carboxylic acid [(S)-3-methyl-1-(5-trifluoromethyl-1H-[1,2,4]triazol-3-ylmethyl)-butyl]-amide]
3150 nM | CCC(CC)n1c(Cc2cccs2)nc2cc(C(=O)NC(CC(C)C)c3cccnc3)ccc21 (centres unmarked) [Example 478, 1-(1-Ethyl-propyl)-2-thiophen-2-ylmethyl-1H-benzoimidazole-5-carboxylic acid (3-methyl-1-pyridin-3-yl-butyl)-amide]
2820 nM | CCC(CC)n1c(Cc2cccs2)nc2cc(C(=O)N[C@H](Cc3noc(C4CC4)n3)CC(C)C)ccc21 [Example 475, 1-(1-Ethyl-propyl)-2-thiophen-2-ylmethyl-1H-benzoimidazole-5-carboxylic acid [(S)-1-(5-cyclopropyl-[1,2,4]oxadiazol-3-ylmethyl)-3-methyl-butyl]-amide]
2720 nM | CCCC(NC(=O)c1ccc2c(c1)nc(Cc1cccs1)n2C(CC)CC)c1ccccn1 (centres unmarked) [Example 477, 1-(1-Ethyl-propyl)-2-thiophen-2-ylmethyl-1H-benzoimidazole-5-carboxylic acid (1-pyridin-2-yl-butyl)-amide]
1360 nM | CCC(CC)n1c(Cc2cccs2)nc2cc(C(=O)N[C@@H](CC(C)C)C(=O)NCC3COCCO3)ccc21 (stereo partly drawn) [Example 393, 1-(1-Ethyl-propyl)-2-thiophen-2-ylmethyl-1H-benzoimidazole-5-carboxylic acid {(S)-1-[([1,4]dioxan-2-ylmethyl)-carbamoyl]-3-methyl-butyl}-amide]
1110 nM | CCC(CC)n1c(Cc2cccs2)nc2cc(C(=O)N[C@@H](CC(C)C)C(=O)NCCc3n[nH]c(=O)[nH]3)ccc21 [Example 406, 1-(1-Ethyl-propyl)-2-thiophen-2-ylmethyl-1H-benzoimidazole-5-carboxylic acid {(S)-3-methyl-1-[2-(5-oxo-4,5-dihydro-1H-[1,2,4]triazol-3-yl)-ethylcarbamoyl]-butyl}-amide]
842 nM | CCC(CC)n1c(Cc2cccs2)nc2cc(C(=O)N[C@@H](CC(C)C)C(=O)N(C)Cc3n[nH]c(=O)[nH]3)ccc21 [Example 405, 1-(1-Ethyl-propyl)-2-thiophen-2-ylmethyl-1H-benzoimidazole-5-carboxylic acid {(S)-3-methyl-1-[methyl-(5-oxo-4,5-dihydro-1H-[1,2,4]triazol-3-ylmethyl)-carbamoyl]-butyl}-amide]
173 nM | CCC(CC)n1c(Cc2cccs2)nc2cc(C(=O)N[C@H](CC(=N)NO)CC(C)C)ccc21 [Example 473, 1-(1-Ethyl-propyl)-2-thiophen-2-ylmethyl-1H-benzoimidazole-5-carboxylic acid [(S)-1-(N-hydroxycarbamimidoylmethyl)-3-methyl-butyl]-amide]
99 nM | CCC(CC)n1c(Cc2cccs2)nc2cc(C(=O)N[C@@H](CC(C)C)C(=O)NCc3nnn[nH]3)ccc21 [Example 399, 1-(1-Ethyl-propyl)-2-thiophen-2-ylmethyl-1H-benzoimidazole-5-carboxylic acid {(S)-3-methyl-1-[(1H-tetrazol-5-ylmethyl)-carbamoyl]-butyl}-amide]
70 nM | CCC(CC)n1c(Cc2cccs2)nc2cc(C(=O)N[C@@H](CC(C)C)C(=O)NCCc3nnn[nH]3)ccc21 [Example 400, 1-(1-Ethyl-propyl)-2-thiophen-2-ylmethyl-1H-benzoimidazole-5-carboxylic acid {(S)-3-methyl-1-[2-(1H-tetrazol-5-yl)-ethylcarbamoyl]-butyl}-amide]
